Experimental data published in patent US20240018198A1, “MU-DIGUETOXIN-DC1A VARIANT POLYPEPTIDES FOR PEST CONTROL” (Vestaron Corporation, priority 2020, published 2024).
linker = not defined here; ERSP = not defined here

How the values were obtained:
[1] = test system: Corn earworm (Helicoverpa zea); assay: Screen for mutants improving CEW activity (injection of concentrated supernatants); format: in vivo
Description: Mutations of Dc1a were made to screen for recovery of CEW activity. Here, mutants were synthesized and cloned according the methods described above. […] Supernatants were combined and concentrated 10× using centrifugal filtration cassettes (Pall) with a 3000 Da molecular weight cutoff. Concentrates were then injected into Corn earworm (Helicoverpa zea).
Corn earworm (CEW) larvae were injected in their fourth instar. Eggs of H zea were purchased (Benzon Research, 7 Kuhn Dr, Carlisle, PA, 17015) and reared to fourth instar on General Purpose Lepidoptera Diet (Frontier Agricultural Science, Newark, DE). Prior to injection larvae were weighed in order to calculate μmol/g doses. Injections volumes are 1 μL, and were performed with a 30 gauge needle and glass syringe in a hand microapplicator (Burkard, Rickmansworth, Herts, England). The injection site was near the base of one of the hindmost prolegs. Following the injection, larvae are placed in a new enclosure with General Purpose Lepidoptera Diet and their condition (including mortality, sublethal effects, and behavior) is evaluated 24-hours post-injection.

[2] = test system: Adult houseflies (Musca domestica); assay: Housefly injection assay with plant-expressed proteins (TSP extract); format: in vivo; conditions: 2 hours post-injection; 0.5 μL TSP extract per fly; impacted = knock-down and dead
Description: Full length DVP-insecticidal protein was purified from the tobacco by using a manual extraction technique. Leaf tissue was obtained via 30 mm diameter punch, from the infiltrated area, rolled up and placed inside a 2 mL conical bottom tube with two, 5/32 inch diameter stainless steel grinding balls, and frozen in liquid nitrogen. The samples were then homogenized using a Troemner-Talboys High Throughput Homogenizer. Next, a 750 μL ice-cold total soluble protein (TSP) extraction solution (sodium phosphate solution 50 mM, EDTA 1 mM, pH 7.0) was added into the tube and vortexed. The microtube was then left to incubate at room temperature for 15 minutes, and then centrifuged at 16,000×g for 15 minutes at 4° C. Next, 100 μL of the resulting supernatant was taken and loaded into pre-Sephadex G-50-packed column in 0.45 μm Millipore MultiScreen filter microtiter plate with empty receiving Costar microtiter plate on bottom. The microtiter plates were then centrifuged at 800 g for 2 minutes at 4° C. The resulting filtrate solution (hereinafter “total soluble protein extract” or “TSP extract”) of the tobacco leaves, was ready for downstream analysis.
Houseflies were injected with the TSP extract obtained from the plant extraction process described above. Prior to injection, adult houseflies (Musca domestica) were immobilized with CO2, and selected for injection based on weight (12-20 mg). […] Impacted scores include knock-down and dead.

C41K/C51E/D38A/L42V: Mu-diguetoxin-Dc1a variant polypeptide; printed sequences differ at position 41 (D in Table 1, K in Table 9) (AKDGDVEGPAGCKKYDVECDSGECCQKQYLWYKWRPLACRKVKSGFFSSKEVCRDV; C41K/ C51E/ D38A/ L42V DVP)
Activity ([1]; Table 9: CEW fourth instar, 10x concentrated supernatants, 1 μL injection, 24 hours): Yes | CEW KD50 ([1]; Table 10: category relative to WT): Reduced (Reduced=>1.5)

M1: plant-expressed DVP-insecticidal protein ERSP-UBI-L-DVP-HIS, DVP SEQ ID NO 187 ({ERSP-ubiquitin-linker}-AKDGDVEGPAGCKKYDVECDSGECCQKQYLWSKWRALDCRCLKSGFFSSKCVCRDV-{His tag}; cysteine pairing not given here; reading uncertain)
% Impacted [2]: 60%

M2: plant-expressed DVP-insecticidal protein ERSP-UBI-L-DVP-HIS, DVP SEQ ID NO 188 ({ERSP-ubiquitin-linker}-AKDGDVEGPAGCKKYDVECDSGECCQKQYLWKKWRALDCRCLKSGFFSSKCVCRDV-{His tag}; cysteine pairing not given here; reading uncertain)
% Impacted [2]: 60%

M3: plant-expressed DVP-insecticidal protein ERSP-UBI-L-DVP-HIS, DVP SEQ ID NO 189 ({ERSP-ubiquitin-linker}-AKDGDVEGPAGCKKYDVECDSGECCQKQYLWHKWRALDCRCLKSGFFSSKCVCRDV-{His tag}; cysteine pairing not given here; reading uncertain)
% Impacted [2]: 80%

M4: plant-expressed DVP-insecticidal protein ERSP-UBI-L-DVP-HIS, DVP SEQ ID NO 190 ({ERSP-ubiquitin-linker}-AKDGDVEGPAGCKKYDVECDSGECCQKQYLFSKWRPLDCRCLKSGFFSSKCVCRDV-{His tag}; cysteine pairing not given here; reading uncertain)
% Impacted [2]: 100%
